Structures can show the parent of a compound that is named as a salt.
target: T1, human EP4 (hEP4) receptor (Homo sapiens, UniProt P35408); experiment: In vitro human EP4 functional antagonist activity using BRET biosensors (cAMP EPAC biosensor, TCS2510 stimulation); assay type: cell-based; details: antagonist activity vs EC60 TCS2510, hEP4 in HEK-293 T cells
T1 construct: expressed in transfected cells; host or cells: HEK-293 T cells, transient co-transfection with polyethylenimine
Experimental: Examples of the present invention were tested successively for their agonist and antagonist activities on human EP4 (hEP4) receptor transiently over-expressed in HEK-293 T cells. […] The assay used to measure compound activity is based on the BRET technology. The unimolecular cAMP biosensor used to detect intracellular cAMP levels following GPCR stimulation consists of the EPAC protein fused to N- and C-terminal of Luciferase and GFP respectively.
Cell Culture and Transfection: HEK-293 T cells are maintained in Dulbecco's Modified Eagle's Medium supplemented with 10% Foetal Calf Serum, 1% Penicillin/Streptomycin at 37° C./5% CO2. Cells are co-transfected using polyethylenimine (25 kDa linear) with two DNA plasmids encoding hEP4, EPAC fused to luciferase (BRET donor) and to GFP (BRET acceptor). After transfection, cells are cultured (40,000 cells per well) for 48 h at 37° C./5% CO2.
BRET assay: Receptor activity is detected by changes in BRET signal. On the day of the assay, cells are rinsed and incubated in assay buffer (1.8 mM CaCl2, 1 mM MgCl2, 2.7 mM KCl, 137 mM NaCl, 0.4 mM NaH2PO4, 5.5 mM D-Glucose, 11.9 mM NaHCO3, 25 mM Hepes). Then, plates are equilibrated 1 h at 22° C. before adding compounds. Compounds and luciferase substrate are added to the cells using an automated device (Freedom Evo®, Tecan) and BRET readings are collected on EnVision (PerkinElmer) with specific filters (410 nm BW 80 nm, 515 nm BW 30 nm). Agonist and antagonist activities of compounds are consecutively evaluated on the same cell plate. Agonist activity is first measured after 5 min incubation with compound alone on the cells. Then, cells are stimulated by an EC60 TCS2510 concentration and luminescence is recorded for additional 10 min. EC60 TCS2510 concentration is the concentration giving 60% of the maximal TCS2510 response. Agonist or antagonist activities are evaluated in comparison to basal signals evoked by assay buffer or EC60 TCS2510 alone, respectively.
For IC50 determination, a dose-response test is performed using 10 concentrations (ranging over 4.5 logs) of each compound. Dose-response curves are fitted using the sigmoidal dose-response (variable slope) analysis in GraphPad Prism software (GraphPad Software) and IC50 of antagonist activity is calculated. Dose-response experiments are performed in duplicate, in two independent experiments. IC50 values are categorized as following: A: IC50<0.1 μM; B: IC50<1 μM.

T1 sequence (P35408 whole entry): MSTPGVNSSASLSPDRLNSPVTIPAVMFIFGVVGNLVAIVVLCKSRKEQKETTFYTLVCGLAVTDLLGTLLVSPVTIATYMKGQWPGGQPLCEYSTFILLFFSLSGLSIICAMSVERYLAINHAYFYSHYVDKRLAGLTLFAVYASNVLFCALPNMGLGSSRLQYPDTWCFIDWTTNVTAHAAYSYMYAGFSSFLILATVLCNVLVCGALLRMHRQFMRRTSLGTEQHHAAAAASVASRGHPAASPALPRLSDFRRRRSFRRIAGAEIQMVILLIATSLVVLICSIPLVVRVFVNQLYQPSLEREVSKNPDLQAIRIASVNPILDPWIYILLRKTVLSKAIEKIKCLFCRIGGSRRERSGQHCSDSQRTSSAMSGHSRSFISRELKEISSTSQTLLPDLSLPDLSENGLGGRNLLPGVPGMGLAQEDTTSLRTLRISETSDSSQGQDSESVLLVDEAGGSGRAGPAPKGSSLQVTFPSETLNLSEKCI

**Q.** `C[C@H](NC(=O)C1(NCCOc2ccccc2)CCOC(C)(C)C1)c1ccc(C(=O)O)cc1` (single isomer, unassigned) [Example 72, hydrochloride] was tested. Which IC50 did it give?
**A.** The IC50 was < 100 nM.

**Q.** `C[C@H](NC(=O)C1(NCCOc2ccccc2)CCOCC1)c1ccc(C(=O)O)cc1` [Example 1, 4-[(1S)-1-[[4-(2-Phenoxyethylamino)tetrahydropyran-4-carbonyl]amino]ethyl]benzoic acid, hydrochloride] was tested. Which IC50 did it give?
**A.** The IC50 was < 100 nM.

**Q.** How did the IC50 turn out when `C[C@H](NC(=O)C1(N(C)CCOc2ccccc2)CCOCC1)c1ccc(C(=O)O)cc1` [Example 2, 4-[(1S)-1-[[4-[Methyl(2-phenoxyethyl)amino]tetrahydropyran-4-carbonyl]amino]ethyl]benzoic acid, hydrochloride] was run?
**A.** The IC50 was < 100 nM.

**Q.** How did the IC50 turn out when `C[C@H](NC(=O)C1(N(C)CCOc2ccccc2)CCOCC1)c1ccc(C(N)=O)cc1` [Example 3, N-[(1S)-1-(4-Carbamoylphenyl)ethyl]-4-[methyl(2-phenoxyethyl)amino]tetrahydropyran-4-carboxamide] was run?
**A.** The IC50 was < 1000 nM.

**Q.** For `CNC(=O)c1ccc([C@H](C)NC(=O)C2(N(C)CCOc3ccccc3)CCOCC2)cc1` [Example 4, N-[(1S)-1-[4-(Methylcarbamoyl)phenyl]ethyl]-4-[methyl(2-phenoxyethyl)amino]tetrahydropyran-4-carboxamide], which IC50 is on record?
**A.** The IC50 was < 1000 nM.

**Q.** Which IC50 does the source give for `C[C@H](NC(=O)C1(N(C)CCOc2ccccc2)CCOCC1)c1ccc(C(=O)N(C)C)cc1` [Example 5, N-[(1S)-1-[4-(Dimethylcarbamoyl)phenyl]ethyl]-4-[methyl(2-phenoxyethyl)amino]tetrahydropyran-4-carboxamide] here?
**A.** The IC50 was < 1000 nM.

**Q.** Which IC50 does the source give for `C[C@H](NC(=O)C1(NCCOc2cccc(Cl)c2)CCOCC1)c1ccc(C(=O)O)cc1` [Example 8, 4-[(1S)-1-[[4-[2-(3-Chlorophenoxy)ethylamino]tetrahydropyran-4-carbonyl]amino]ethyl]benzoic acid, hydrochloride] here?
**A.** Its IC50 is < 100 nM.

**Q.** With `C[C@H](NC(=O)C1(N(C)CCOc2cccc(Cl)c2)CCOCC1)c1ccc(C(=O)O)cc1` [Example 9, 4-[(1S)-1-[[4-[2-(3-Chlorophenoxy)ethyl-methyl-amino]tetrahydropyran-4-carbonyl]amino]ethyl]benzoic acid, hydrochloride] as the compound, how does the IC50 read?
**A.** The IC50 was < 100 nM.

**Q.** How did the IC50 turn out when `CCN(CCOc1cccc(Cl)c1)C1(C(=O)N[C@@H](C)c2ccc(C(=O)O)cc2)CCOCC1` [Example 10, 4-[(1S)-1-[[4-[2-(3-Chlorophenoxy)ethyl-ethyl-amino]tetrahydropyran-4-carbonyl]amino]ethyl]benzoic acid, hydrochloride] was run?
**A.** Its IC50 is < 100 nM.

**Q.** With `C[C@H](NC(=O)C1(NCCOc2ccc(Cl)cc2)CCOCC1)c1ccc(C(=O)O)cc1` [Example 11, 4-[(1S)-1-[[4-[2-(4-Chlorophenoxy)ethylamino]tetrahydropyran-4-carbonyl]amino]ethyl]benzoic acid, hydrochloride] as the compound, how does the IC50 read?
**A.** The IC50 was < 1000 nM.

**Q.** With `C[C@H](NC(=O)C1(NCCOc2cccc(C(F)(F)F)c2)CCOCC1)c1ccc(C(=O)O)cc1` [Example 12, 4-[(1S)-1-[[4-[2-[3-(Trifluoromethyl)phenoxy]ethylamino]tetrahydropyran-4-carbonyl]amino]ethyl]benzoic acid] as the compound, how does the IC50 read?
**A.** The IC50 was < 100 nM.

**Q.** With `COc1cccc(OCCNC2(C(=O)N[C@@H](C)c3ccc(C(=O)O)cc3)CCOCC2)c1` [Example 13, 4-[(1S)-1-[[4-[2-[3-Methoxyphenoxy]ethylamino]tetrahydropyran-4-carbonyl]amino]ethyl]benzoic acid, hydrochloride] as the compound, how does the IC50 read?
**A.** Its IC50 is < 100 nM.

**Q.** With `Cc1cccc(OCCNC2(C(=O)N[C@@H](C)c3ccc(C(=O)O)cc3)CCOCC2)c1` [Example 14, 4-[(1S)-1-[[4-[2-(3-Methylphenoxy)ethylamino]tetrahydropyran-4-carbonyl]amino]ethyl]benzoic acid, hydrochloride] as the compound, how does the IC50 read?
**A.** Its IC50 is < 100 nM.

**Q.** `C[C@H](NC(=O)C1(NCCOc2cc(F)cc(F)c2)CCOCC1)c1ccc(C(=O)O)cc1` [Example 16, 4-[(1S)-1-[[4-[2-(3,5-Difluorophenoxy)ethylamino]tetrahydropyran-4-carbonyl]amino]ethyl]benzoic acid, hydrochloride] was tested. Which IC50 did it give?
**A.** The IC50 was < 100 nM.

**Q.** For `C[C@H](NC(=O)C1(NCCOc2ccc(Cl)c(Cl)c2)CCOCC1)c1ccc(C(=O)O)cc1` [Example 17, 4-[(1S)-1-[[4-[2-(3,4-Dichlorophenoxy)ethylamino]tetrahydropyran-4-carbonyl]amino]ethyl]benzoic acid, hydrochloride], which IC50 is on record?
**A.** Its IC50 is < 1000 nM.

**Q.** `C[C@H](NC(=O)C1(NCCCc2ccccc2)CCOCC1)c1ccc(C(=O)O)cc1` [Example 18, 4-[(1S)-1-[[4-(3-Phenylpropylamino)tetrahydropyran-4-carbonyl]amino]ethyl]benzoic acid, hydrochloride] was tested. Which IC50 did it give?
**A.** The IC50 was < 1000 nM.

**Q.** `C[C@H](NC(=O)C1(NCc2cccc(F)c2)CCOCC1)c1ccc(C(=O)O)cc1` [Example 20, 4-[(1S)-1-[[4-[(3-Fluorophenyl)methylamino]tetrahydropyran-4-carbonyl]amino]ethyl]benzoic acid, hydrochloride] was tested. Which IC50 did it give?
**A.** Its IC50 is < 1000 nM.

**Q.** With `C[C@H](NC(=O)C1(NCC2CCCCC2)CCOCC1)c1ccc(C(=O)O)cc1` [Example 21, 4-[(1S)-1-[[4-(Cyclohexylmethylamino)tetrahydropyran-4-carbonyl]amino]ethyl]benzoic acid, hydrochloride] as the compound, how does the IC50 read?
**A.** The IC50 was < 1000 nM.

**Q.** How did the IC50 turn out when `O=C(O)c1ccc(C2(NC(=O)C3(NCCOc4ccccc4)CCOCC3)CC2)cc1` [Example 24, 4-[1-[[4-(2-Phenoxyethylamino)tetrahydropyran-4-carbonyl]amino]cyclopropyl]benzoic acid, hydrochloride] was run?
**A.** The IC50 was < 1000 nM.

**Q.** With `CCCN(CCOc1ccccc1)C1(C(=O)NC2(c3ccc(C(=O)O)cc3)CC2)CCOCC1` [Example 26, 4-[1-[[4-[Propyl(2-phenoxyethyl)amino]tetrahydropyran-4-carbonyl]amino]cyclopropyl]benzoic acid, hydrochloride] as the compound, how does the IC50 read?
**A.** The IC50 was < 1000 nM.

**Q.** For `O=C(O)c1ccc(C2(NC(=O)C3(N(CCOc4ccccc4)CC4CC4)CCOCC3)CC2)cc1` [Example 27, 4-[1-[[4-[Cyclopropylmethyl(2-phenoxyethyl)amino]tetrahydropyran-4-carbonyl]amino]cyclopropyl]benzoic acid, hydrochloride], which IC50 is on record?
**A.** Its IC50 is < 1000 nM.

**Q.** For `O=C(O)c1ccc(C2(NC(=O)C3(NCCOc4cccc(Cl)c4)CCOCC3)CC2)cc1` [Example 28, 4-[1-[[4-[2-(3-Chlorophenoxy)ethylamino]tetrahydropyran-4-carbonyl]amino]cyclopropyl]benzoic acid, hydrochloride], which IC50 is on record?
**A.** The IC50 was < 100 nM.

**Q.** For `CN(CCOc1cccc(Cl)c1)C1(C(=O)NC2(c3ccc(C(=O)O)cc3)CC2)CCOCC1` [Example 29, 4-[1-[[4-[2-(3-Chlorophenoxy)ethyl-methyl-amino]tetrahydropyran-4-carbonyl]amino]cyclopropyl]benzoic acid, hydrochloride], which IC50 is on record?
**A.** The IC50 was < 100 nM.

**Q.** Which IC50 does the source give for `CN(CCOc1ccccc1Cl)C1(C(=O)NC2(c3ccc(C(=O)O)cc3)CC2)CCOCC1` [Example 30, 4-[1-[[4-[2-(2-Chlorophenoxy)ethyl-methyl-amino]tetrahydropyran-4-carbonyl]amino]cyclopropyl]benzoic acid, hydrochloride] here?
**A.** The IC50 was < 100 nM.

**Q.** For `CN(CCOc1ccc(Cl)cc1)C1(C(=O)NC2(c3ccc(C(=O)O)cc3)CC2)CCOCC1` [Example 31, 4-[1-[[4-[2-(4-Chlorophenoxy)ethyl-methyl-amino]tetrahydropyran-4-carbonyl]amino]cyclopropyl]benzoic acid, hydrochloride], which IC50 is on record?
**A.** Its IC50 is < 1000 nM.

**Q.** For `CN(CCOc1cccc(F)c1)C1(C(=O)NC2(c3ccc(C(=O)O)cc3)CC2)CCOCC1` [Example 32, 4-[1-[[4-[2-(3-Fluorophenoxy)ethyl-methyl-amino]tetrahydropyran-4-carbonyl]amino]cyclopropyl]benzoic acid, hydrochloride], which IC50 is on record?
**A.** The IC50 was < 100 nM.

**Q.** Which IC50 does the source give for `CN(CCOc1ccccc1F)C1(C(=O)NC2(c3ccc(C(=O)O)cc3)CC2)CCOCC1` [Example 33, 4-[1-[[4-[2-(2-Fluorophenoxy)ethyl-methyl-amino]tetrahydropyran-4-carbonyl]amino]cyclopropyl]benzoic acid, hydrochloride] here?
**A.** The IC50 was < 100 nM.

**Q.** Which IC50 does the source give for `CN(CCOc1ccc(F)cc1)C1(C(=O)NC2(c3ccc(C(=O)O)cc3)CC2)CCOCC1` [Example 34, 4-[1-[[4-[2-(4-Fluorophenoxy)ethyl-methyl-amino]tetrahydropyran-4-carbonyl]amino]cyclopropyl]benzoic acid, hydrochloride] here?
**A.** The IC50 was < 100 nM.
